How the values were obtained:
human alpha 7-wt nAChR = biological target: T1, human alpha 7-wt nAChR (Homo sapiens, UniProt P36544); assay: Ca2+ flux imaging (FDSS) (Protocol B); format: cell-based; conditions: for Emax: efficacy of 100 μM choline defined as 100% in the absence of a PAM, read-out: a7-PAM-G_[33]_Eff_Curve_FI % Efficacy; for EC50: potentiation of 100 μM choline, compounds 0.01 μM to 30 μM, read-out: a7-PAM-G_[33]_pEC50 pEC50 (converted)
T1 construct: expressed in transfected cells
Outline: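 PAM activity was measured as FDSS calcium fluorescence in α7-wt nAChR cells loaded with 2 μM Fluo-4AM, with compounds at 0.01–30 μM added alongside or 10 min ahead of sub-maximal 100 μM choline. Peak responses were normalised to choline-only efficacy, and EC50 was taken at half-maximal effect.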

T1 sequence (P36544 23-502): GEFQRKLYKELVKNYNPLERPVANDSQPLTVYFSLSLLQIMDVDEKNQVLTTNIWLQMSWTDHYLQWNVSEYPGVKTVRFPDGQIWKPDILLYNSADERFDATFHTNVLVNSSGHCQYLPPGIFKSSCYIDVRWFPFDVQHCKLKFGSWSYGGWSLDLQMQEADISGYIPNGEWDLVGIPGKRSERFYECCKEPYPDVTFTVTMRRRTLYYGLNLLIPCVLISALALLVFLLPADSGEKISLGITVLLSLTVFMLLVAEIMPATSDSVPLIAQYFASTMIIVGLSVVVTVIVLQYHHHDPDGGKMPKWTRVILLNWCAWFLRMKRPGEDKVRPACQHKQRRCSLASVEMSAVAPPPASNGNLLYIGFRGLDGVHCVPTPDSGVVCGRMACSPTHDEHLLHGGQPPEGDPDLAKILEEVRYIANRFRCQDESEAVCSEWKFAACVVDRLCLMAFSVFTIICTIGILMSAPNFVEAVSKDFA

Question: Which results are given for Cc1ccc(-c2sc(N3C[C@@H](C)O[C@@H](C)C3)nc2CNC(=O)CC2CC2)cn1 [Compound 119, N-[[2-[(2R,6S)-2,6-dimethyl-4-morpholinyl]-5-(6-methyl-3-pyridinyl)-4-thiazolyl]methyl]-cyclopropaneacetamide]?
Answer: melting point: 139 °C; Emax (human alpha 7-wt nAChR): 302%; EC50 (human alpha 7-wt nAChR): 4270 nM

Question: For Cc1ccc(-c2sc(N3C[C@@H](C)O[C@@H](C)C3)nc2CNC(=O)C2CCC2)cn1 [Compound 120, N-[[2-[(2R,6S)-2,6-dimethyl-4-morpholinyl]-5-(6-methyl-3-pyridinyl)-4-thiazolyl]methyl]-cyclobutanecarboxamide], which melting point is on record?
Answer: 139 °C

Question: And the Emax (human alpha 7-wt nAChR)?
Answer: 567%

Question: With Cc1ccc(-c2sc(N3C[C@@H](C)O[C@@H](C)C3)nc2CNC(=O)c2ccccc2Cl)cn1 [Compound 121, 2-chloro-N-[[2-[(2R,6S)-2,6-dimethyl-4-morpholinyl]-5-(6-methyl-3-pyridinyl)-4-thiazolyl]methyl]-benzamide] as the compound, how does the melting point read?
Answer: 152 °C

Question: What about the Emax (human alpha 7-wt nAChR) of the same compound?
Answer: 356%

Question: And the EC50 (human alpha 7-wt nAChR)?
Answer: 2040 nM

Question: Which melting point does the source give for Cc1ccc(-c2sc(N3C[C@@H](C)O[C@@H](C)C3)nc2CNC(=O)c2cccc(Cl)c2)cn1 [Compound 122, 3-chloro-N-[[2-[(2R,6S)-2,6-dimethyl-4-morpholinyl]-5-(6-methyl-3-pyridinyl)-4-thiazolyl]methyl]-benzamide] here?
Answer: 167 °C

Question: What about the Emax (human alpha 7-wt nAChR) of the same compound?
Answer: 473%

Question: What about the EC50 (human alpha 7-wt nAChR) of the same compound?
Answer: 1000 nM

Question: What does the source list for Cc1ccc(-c2sc(N3C[C@@H](C)O[C@@H](C)C3)nc2CNC(=O)c2ccc(Cl)cc2)cn1 [Compound 123, 4-chloro-N-[[2-[(2R,6S)-2,6-dimethyl-4-morpholinyl]-5-(6-methyl-3-pyridinyl)-4-thiazolyl]methyl]-benzamide]?
Answer: melting point: 208 °C; Emax (human alpha 7-wt nAChR): 636%; EC50 (human alpha 7-wt nAChR): 389 nM

Question: Which results are given for Cc1ccc(-c2sc(N3C[C@@H](C)O[C@@H](C)C3)nc2CNC(=O)c2cccc(F)c2)cn1 [Compound 125, N-[[2-[(2R,6S)-2,6-dimethyl-4-morpholinyl]-5-(6-methyl-3-pyridinyl)-4-thiazolyl]methyl]-3-fluoro-benzamide]?
Answer: melting point: 147 °C; Emax (human alpha 7-wt nAChR): 428%; EC50 (human alpha 7-wt nAChR): 851 nM

Question: For Cc1ccc(-c2sc(N3C[C@@H](C)O[C@@H](C)C3)nc2CNC(=O)c2ccc(F)cc2)cn1 [Compound 126, N-[[2-[(2R,6S)-2,6-dimethyl-4-morpholinyl]-5-(6-methyl-3-pyridinyl)-4-thiazolyl]methyl]-4-fluoro-benzamide], which melting point is on record?
Answer: 195 °C

Question: What about the Emax (human alpha 7-wt nAChR) of the same compound?
Answer: 655%

Question: And the EC50 (human alpha 7-wt nAChR)?
Answer: 1660 nM

Question: With Cc1cc(-c2sc(N3C[C@@H](C)O[C@@H](C)C3)nc2CNC(=O)c2cc(C)oc2C)cc(C)n1 [Compound 146, N-[[2-[(2R,6S)-2,6-dimethyl-4-morpholinyl]-5-(2,6-dimethyl-4-pyridinyl)-4-thiazolyl]methyl]-2,5-dimethyl-3-furancarboxamide] as the compound, how does the melting point read?
Answer: 131 °C

Question: And the EC50 (human alpha 7-wt nAChR)?
Answer: 977 nM

Question: What does the source list for Cc1cc(-c2sc(N3C[C@@H](C)O[C@@H](C)C3)nc2CNC(=O)c2occc2C)cc(C)n1 [Compound 147, N-[[2-[(2R,6S)-2,6-dimethyl-4-morpholinyl]-5-(2,6-dimethyl-4-pyridinyl)-4-thiazolyl]methyl]-3-methyl-2-furancarboxamide]?
Answer: melting point: 149 °C; EC50 (human alpha 7-wt nAChR): 912 nM

Question: With Cc1cc(-c2sc(N3C[C@@H](C)O[C@@H](C)C3)nc2CNC(=O)c2ccno2)cc(C)n1 [Compound 149, N-[[2-[(2R,6S)-2,6-dimethyl-4-morpholinyl]-5-(2,6-dimethyl-4-pyridinyl)-4-thiazolyl]methyl]-5-isoxazolecarboxamide] as the compound, how does the melting point read?
Answer: 164 °C

Question: What about the EC50 (human alpha 7-wt nAChR) of the same compound?
Answer: 1620 nM

Question: With Cc1cc(-c2sc(N3C[C@@H](C)O[C@@H](C)C3)nc2CNC(=O)c2sccc2C)cc(C)n1 [Compound 150, N-[[2-[(2R,6S)-2,6-dimethyl-4-morpholinyl]-5-(2,6-dimethyl-4-pyridinyl)-4-thiazolyl]methyl]-3-methyl-2-thiophenecarboxamide] as the compound, how does the melting point read?
Answer: 184 °C

Question: And the Emax (human alpha 7-wt nAChR)?
Answer: 894%

Question: What about the EC50 (human alpha 7-wt nAChR) of the same compound?
Answer: 427 nM

Question: With Cc1cc(-c2sc(N3C[C@@H](C)O[C@@H](C)C3)nc2CNC(=O)c2oc(C)nc2C)cc(C)n1 [Compound 159, N-[[2-[(2R,6S)-2,6-dimethyl-4-morpholinyl]-5-(2,6-dimethyl-4-pyridinyl)-4-thiazolyl]methyl]-2,4-dimethyl-5-oxazolecarboxamide] as the compound, how does the melting point read?
Answer: 193 °C

Question: What about the Emax (human alpha 7-wt nAChR) of the same compound?
Answer: 704%

Question: What about the EC50 (human alpha 7-wt nAChR) of the same compound?
Answer: 9770 nM

Question: Which melting point does the source give for Cc1cc(-c2sc(N3C[C@@H](C)O[C@@H](C)C3)nc2CNC(=O)c2cnn(C)c2C)cc(C)n1 [Compound 160, N-[[2-[(2R,6S)-2,6-dimethyl-4-morpholinyl]-5-(2,6-dimethyl-4-pyridinyl)-4-thiazolyl]methyl]-1,5-dimethyl-1H-pyrazole-4-carboxamide] here?
Answer: 169 °C

Question: And the EC50 (human alpha 7-wt nAChR)?
Answer: 8130 nM

Question: With Cc1cc(-c2sc(N3C[C@@H](C)O[C@@H](C)C3)nc2CNC(=O)c2ncoc2C)cc(C)n1 [Compound 161, N-[[2-[(2R,6S)-2,6-dimethyl-4-morpholinyl]-5-(2,6-dimethyl-4-pyridinyl)-4-thiazolyl]methyl]-5-methyl-4-oxazolecarboxamide] as the compound, how does the melting point read?
Answer: 201 °C

Question: What about the Emax (human alpha 7-wt nAChR) of the same compound?
Answer: 509%

Question: And the EC50 (human alpha 7-wt nAChR)?
Answer: 5130 nM

Question: What does the source list for Cc1cc(-c2sc(N3C[C@@H](C)O[C@@H](C)C3)nc2CNC(=O)c2c(C)noc2C(F)(F)F)cc(C)n1 [Compound 163, N-[[2-[(2R,6S)-2,6-dimethyl-4-morpholinyl]-5-(2,6-dimethyl-4-pyridinyl)-4-thiazolyl]methyl]-3-methyl-5-(trifluoromethyl)-4-isoxazolecarboxamide]?
Answer: melting point: 176 °C; Emax (human alpha 7-wt nAChR): 142%

Question: What does the source list for Cc1cc(-c2sc(N3C[C@@H](C)O[C@@H](C)C3)nc2CNC(=O)c2csc(C)c2C)cc(C)n1 [Compound 164, N-[[2-[(2R,6S)-2,6-dimethyl-4-morpholinyl]-5-(2,6-dimethyl-4-pyridinyl)-4-thiazolyl]methyl]-4,5-dimethyl-3-thiophenecarboxamide]?
Answer: melting point: 200 °C; EC50 (human alpha 7-wt nAChR): 166 nM

Question: For Cc1cc(-c2sc(N3C[C@@H](C)O[C@@H](C)C3)nc2CNC(=O)c2onc(C)c2C)cc(C)n1 [Compound 171, N-[[2-[(2R,6S)-2,6-dimethyl-4-morpholinyl]-5-(2,6-dimethyl-4-pyridinyl)-4-thiazolyl]methyl]-3,4-dimethyl-5-isoxazolecarboxamide], which melting point is on record?
Answer: 192 °C

Question: And the Emax (human alpha 7-wt nAChR)?
Answer: 669%

Question: What about the EC50 (human alpha 7-wt nAChR) of the same compound?
Answer: 1620 nM

Question: Which results are given for Cc1cc(-c2sc(N3C[C@@H](C)O[C@@H](C)C3)nc2CNC(=O)c2nn(C)cc2C)cc(C)n1 [Compound 172, N-[[2-[(2R,6S)-2,6-dimethyl-4-morpholinyl]-5-(2,6-dimethyl-4-pyridinyl)-4-thiazolyl]methyl]-1,4-dimethyl-1H-pyrazole-3-carboxamide]?
Answer: melting point: 165 °C; Emax (human alpha 7-wt nAChR): 292%; EC50 (human alpha 7-wt nAChR): 2630 nM

Question: Which results are given for Cc1cc(-c2sc(N3C[C@@H](C)O[C@@H](C)C3)nc2CNC(=O)c2nocc2C)cc(C)n1 [Compound 174, N-[[2-[(2R,6S)-2,6-dimethyl-4-morpholinyl]-5-(2,6-dimethyl-4-pyridinyl)-4-thiazolyl]methyl]-4-methyl-3-isoxazolecarboxamide]?
Answer: melting point: 145 °C; Emax (human alpha 7-wt nAChR): 956%; EC50 (human alpha 7-wt nAChR): 537 nM

Question: What does the source list for Cc1cc(-c2sc(N3C[C@@H](C)O[C@@H](C)C3)nc2CNC(=O)c2ccon2)cc(C)n1 [Compound 180, N-[[2-[(2R,6S)-2,6-dimethyl-4-morpholinyl]-5-(2,6-dimethyl-4-pyridinyl)-4-thiazolyl]methyl]-3-isoxazolecarboxamide]?
Answer: melting point: 179 °C; EC50 (human alpha 7-wt nAChR): 1910 nM

Question: What does the source list for Cc1cc(-c2sc(N3CCOC[C@@H]3C)nc2CNC(=O)c2ccc(F)cc2C)cc(C)n1 [Compound 184, N-[[5-(2,6-dimethyl-4-pyridinyl)-2-[(3S)-3-methyl-4-morpholinyl]-4-thiazolyl]methyl]-4-fluoro-2-methyl-benzamide]?
Answer: melting point: 156 °C; Emax (human alpha 7-wt nAChR): 974%; EC50 (human alpha 7-wt nAChR): 562 nM

Question: For Cc1cc(-c2sc(N3CCOC[C@@H]3C)nc2CNC(=O)CC2CC2)cc(C)n1 [Compound 187, N-[[5-(2,6-dimethyl-4-pyridinyl)-2-[(3S)-3-methyl-4-morpholinyl]-4-thiazolyl]methyl]-cyclopropaneacetamide], which melting point is on record?
Answer: 138 °C

Question: What about the Emax (human alpha 7-wt nAChR) of the same compound?
Answer: 994%

Question: And the EC50 (human alpha 7-wt nAChR)?
Answer: 5250 nM

Question: Which results are given for Cc1cc(-c2sc(N3CCOC[C@@H]3C)nc2CNC(=O)CC(C)C)cc(C)n1 [Compound 189, N-[[5-(2,6-dimethyl-4-pyridinyl)-2-[(3S)-3-methyl-4-morpholinyl]-4-thiazolyl]methyl]-3-methyl-butanamide]?
Answer: melting point: 151 °C; EC50 (human alpha 7-wt nAChR): 1510 nM

Question: With Cc1cc(C(=O)NCc2nc(N3C[C@@H](C)O[C@@H](C)C3)sc2-c2ccnc(C(F)(F)F)c2)no1 [Compound 199, N-[[2-[(2R,6S)-2,6-dimethyl-4-morpholinyl]-5-[2-(trifluoromethyl)-4-pyridinyl]-4-thiazolyl]methyl]-5-methyl-3-isoxazolecarboxamide] as the compound, how does the melting point read?
Answer: 228 °C

Question: What about the EC50 (human alpha 7-wt nAChR) of the same compound?
Answer: 219 nM

Question: With Cc1cc(-c2sc(N3CC4CCC(C3)O4)nc2CNC(=O)c2cc(C)on2)cc(C)n1 [Compound 210, N-[[5-(2,6-dimethyl-4-pyridinyl)-2-(8-oxa-3-azabicyclo[3.2.1]oct-3-y1)-4-thiazolyl]methyl]-5-methyl-3-isoxazolecarboxamide] as the compound, how does the melting point read?
Answer: 206 °C

Question: And the Emax (human alpha 7-wt nAChR)?
Answer: 632%

Question: What about the EC50 (human alpha 7-wt nAChR) of the same compound?
Answer: 3980 nM

Question: Which melting point does the source give for Cc1cc(-c2sc(N3CC4CCC(C3)O4)nc2CNC(=O)c2conc2C)cc(C)n1 [Compound 211, N-[[5-(2,6-dimethyl-4-pyridinyl)-2-(8-oxa-3-azabicyclo[3.2.1]oct-3-yl)-4-thiazolyl]methyl]-3-methyl-4-isoxazolecarboxamide] here?
Answer: 94 °C

Question: What about the Emax (human alpha 7-wt nAChR) of the same compound?
Answer: 246%

Question: And the EC50 (human alpha 7-wt nAChR)?
Answer: 4900 nM

— US8637510B2, “Morpholinothiazoles as alpha 7 positive allosteric modulators” (Janssen Pharmaceutica NV, priority 2009, dated 2014)
